Data set [1] has as its target T1, heat-resistant sarcosine oxidase N from Bacillus sp. NS-129 (present enzyme) (Bacillus sp., UniProt P23342).
T1 construct: the present enzyme is ordinarily present within the cells; made in house; host or cells: Bacillus sp; NS-129 (FERM BP-671), the native producer; purified from the cells
T1 sequence (P23342 1-387): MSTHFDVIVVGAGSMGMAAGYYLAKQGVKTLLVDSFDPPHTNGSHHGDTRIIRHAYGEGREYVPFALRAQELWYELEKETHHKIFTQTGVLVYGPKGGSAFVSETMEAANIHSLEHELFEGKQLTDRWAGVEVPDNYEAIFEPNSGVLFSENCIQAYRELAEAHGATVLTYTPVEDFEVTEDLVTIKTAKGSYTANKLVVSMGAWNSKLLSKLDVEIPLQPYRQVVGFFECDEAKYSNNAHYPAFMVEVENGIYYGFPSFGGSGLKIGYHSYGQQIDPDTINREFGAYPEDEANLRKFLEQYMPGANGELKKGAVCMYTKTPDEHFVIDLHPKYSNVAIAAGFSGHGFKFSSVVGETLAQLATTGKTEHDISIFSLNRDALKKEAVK
Put plainly: Inhibition of heat-resistant sarcosine oxidase N. In kind it is biochemical. The note with it: inhibitor at 2 mM.

The target in data set [2] is Known enzyme*2: the sarcosine oxidase described in J. Biochem. 89, 599 (1981) JAPAN (Corynebacterium sp., UniProt Q50LF2). The note with it: read-out: Km value for sarcosine; 37° C., pH 7.7; Table 1, known enzyme*2; cited from earlier work.
Substrate in data set [3]: CNCC(=O)O
Put plainly: Km determination of heat-resistant sarcosine oxidase N (present enzyme). In kind it is biochemical, Bacillus sp. NS-129. To be noted: other: 37° C., pH 7.7 (phosphate buffer solution). As for the experimental part:
First method: Sarcosine is oxidatively decomposed using the present enzyme and the resulting formaldehyde is determined by colorimetry.
To 0.3 ml of a 0.2 M sarcosine solution were added 0.1 ml of a 0.3 M phosphate buffer solution (pH 7.7) and 0.1 ml of a solution containing an appropriate concentration of the present enzyme. They were subjected to reaction at 37° C. for 10 minutes. The reaction was stopped by addition of 0.5 ml of a 1.0 N acetic acid solution. Thereto was added 3 ml of a color reagent (pH 6.5) containing 0.02% (V/V) of acetylacetone and 10% (W/V) of diammonium hydrogen phosphate. The resulting mixture was subjected to color development at 37° C. for 40 minutes. The absorbance of the resulting color at 410 nm was measured using a photoelectric photometer.
Second method: Sarcosine is oxidatively decomposed using the present enzyme and the resulting hydrogen peroxide (H2 O2) is determined by colorimetry.
0.1 ml of a solution containing an appropriate concentration of the present enzyme was added to a mixture of 0.5 ml of a 0.2 M sarcosine solution, 0.1 ml of a 0.3 M phosphate buffer solution (pH 7.7), 0.1 ml of a 0.2% 2,4-dichlorophenol sulfonate solution, 0.1 ml of a 70 mg/100 ml 4-aminoantipyrine solution and 0.1 ml of a 70 units/ml peroxidase solution. […] The absorbance of the resulting color at 510 nm was measured using a photoelectric photometer.

`CCN1C(=O)C=CC1=O` [N-ethylmaleimide]: the “Inhibition of the enzyme” value in data set [1] was “strongly inhibited”.

For the molecule `O=C(O)CI` [monoiodoacetic acid], the “Inhibition of the enzyme” value in data set [1] is “strongly inhibited”.

For `CNCC(=O)O` [sarcosine, N-methylglycine], the Km in data set [2] was 3.4 mM.

B1: heat-resistant sarcosine oxidase N from Bacillus sp. NS-129 (present enzyme) (Bacillus sp. NS-129) (protein)
chain: MSTHFDVIVVGAGSMGMAAGYYLAKQGVKTLLVDSFDPPHTNGSHHGDTRIIRHAYGEGREYVPFALRAQELWYELEKETHHKIFTQTGVLVYGPKGGSAFVSETMEAANIHSLEHELFEGKQLTDRWAGVEVPDNYEAIFEPNSGVLFSENCIQAYRELAEAHGATVLTYTPVEDFEVTEDLVTIKTAKGSYTANKLVVSMGAWNSKLLSKLDVEIPLQPYRQVVGFFECDEAKYSNNAHYPAFMVEVENGIYYGFPSFGGSGLKIGYHSYGQQIDPDTINREFGAYPEDEANLRKFLEQYMPGANGELKKGAVCMYTKTPDEHFVIDLHPKYSNVAIAAGFSGHGFKFSSVVGETLAQLATTGKTEHDISIFSLNRDALKKEAVK
notes: the present enzyme is ordinarily present within the cells; made in house; host or cells: Bacillus sp; NS-129 (FERM BP-671), the native producer; purified from the cells
For the molecule B1, in data set [3], the Km is given as 4.7 mM.

As a reminder, the Km is the substrate concentration at which the rate is half of its maximum.

These data come from patent US4740465A, “Heat-resistant sarcosine oxidase N and process for producing the same” (Noda Institute for Scientific Research, priority 1985, dated 1988).
